Experimental data reported in patent publication US7728131B2, “Amide derivative and medicine” (Nippon Shinyaku Co., Ltd., priority 2003, dated 2010).
Counter-ions that a name gives are not always drawn. Like-named read-outs stand apart in the source and are kept apart here.

Legend:
[1] = tested on: K562 cells; experiment: Cell growth inhibitory effect, K562 cells (Cell counting Kit-8, 72 hours); settings: for IC50: Homo sapiens, K562, 72 h, read-out: K562 cells (IC50 value: μM); for Ratio (U937 cells/K562 cells): IC50 U937 cells / IC50 K562 cells;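 as to all read-outs here: Read-out is formazan absorbance at 450 nm from WST-8 reduction after a 3 h color reaction, with K562 and U937 cells grown in 96-well plates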
Protocol: of Cell counting Kit-8 (5 mmol/l WST-8, 0.2 mmol/1 1-Methoxy PMS, 150 mmol/l NaCl) (manufactured by Dojindo) was added to each well. After reaction for color development in a CO2 incubator for 3 hours, an absorbance of formazan, generated by reduction of WST-8 was determined at 450 nm using Multi-level counter ARVOsx (manufactured by Wallac).
K562 cells and U937 cells (purchased from American Type Culture Collection) were cultured in a RPMI-1640 medium (manufactured by Sigma) containing 10% (v/v) fetal calf serum (FCS) (manufactures by Sigma) (RPMI-1640/FCS). K562 cells and U937 cells were seeded at a density of 5000 cells/100 μl/well and 4000 cells/100 μl/well in each of 96-hole-plate (manufactured by costar), respectively. The plate was incubated in a CO2 incubator overnight. […] The resulting solution was diluted 500 times in a RPMI-1640/FCS medium and then 100 μl of the diluent was added in a well. The plate was incubated in a CO2 incubator. After 72 hours, 20 μl

[2] = tested on: U937 cells; experiment: Cell growth inhibitory effect, U937 cells (Cell counting Kit-8, 72 hours); type: cell-based; settings: Homo sapiens, U-937, BCR-ABL negative U937 cells, WST-8 absorbance
Protocol: The plate was incubated in a CO2 incubator overnight. […] The plate was incubated in a CO2 incubator. After 72 hours, 20 μl

[3] = read-out: U937 cells (IC50 value: μM)
[4] = continuation of Table 3, read-out: U937 cells (IC50 value: nμM)

Structure (SMILES)	melting point	IC50 [1]	Ratio (U937 cells/K562 cells) [1]	IC50 [2, 3]	IC50 [2, 4]
Cc1ccc(NC(=O)c2ccc(CN3CCN(C)CC3)c(C(F)(F)F)c2)cc1Nc1cc(-c2cccnc2)ccn1 (as salt: methanesulfonate) [Example 29, 4-(4-methylpiperazin-1-ylmethyl)-3-trifluoromethyl-N-{4-methyl-3-[4-(3-pyridyl)pyridin-2-ylamino]phenyl}benzamide methanesulfonate]	189 to 191 °C				
CN[C@H]1CCN(Cc2ccc(C(=O)Nc3ccc(C)c(Nc4nccc(-c5cncnc5)n4)c3)cc2C(F)(F)F)C1 (as salt: salt) [Example 68, (−)-4-[(S)-3-(methylamino)pyrrolidin-1-ylmethyl]-3-trifluoromethyl-N-{4-methyl-3-[4-(5-pyrimidinyl)pyrimidin-2-ylamino]phenyl}benzamide]	142 to 149 °C (dec.)				
Cc1ccc(NC(=O)c2ccc(CN3CCNCC3)c(C(F)(F)F)c2)cc1Nc1nccc(-c2cncnc2)n1 (as salt: trifluoroacetate) [Example 43, 4-(1-piperazinylmethyl)-3-trifluoromethyl-N-{4-methyl-3-[4-(5-pyrimidinyl)pyrimidin-2-ylamino]phenyl}benzamide trifluoroacetate]	199 to 202 °C (dec.)				
Cc1ccc(NC(=O)c2ccc(CN3CCN(C)CC3)c(C(F)F)c2)cc1Nc1nccc(-c2cncnc2)n1.Cl [Example 2, 3-difluoromethyl-4-(4-methylpiperazin-1-ylmethyl)-N-{4-methyl-3-[4-(5-pyrimidinyl)pyrimidin-2-ylamino]phenyl}benzamide hydrochloride]	264 °C (dec.)	0.0028 µM	5357	15 µM	
CCc1cc(C(=O)Nc2ccc(C)c(Nc3nccc(-c4cncnc4)n3)c2)ccc1CN1CCN(C)CC1.Cl [Example 4, 3-ethyl-4-(4-methylpiperazin-1-ylmethyl)-N-{4-methyl-3-[4-(5-pyrimidinyl)pyrimidin-2-ylamino]phenyl}benzamide hydrochloride]	253 to 255 °C (dec.)	0.002 µM	14000	28 µM	
Cc1ccc(NC(=O)c2ccc(C=C3CCN(C)CC3)c(C(F)(F)F)c2)cc1Nc1nccc(-c2cncnc2)n1.Cl [Example 6, 4-(1-methylpiperidin-4-ylidenemethyl)-3-trifluoromethyl-N-{4-methyl-3-[4-(5-pyrimidinyl)pyrimidin-2-ylamino]phenyl}benzamide hydrochloride]	202 to 206 °C (dec.)	0.0012 µM	3583	4.3 µM	
Cc1ccc(NC(=O)c2ccc(CC3CCN(C)CC3)c(C(F)(F)F)c2)cc1Nc1nccc(-c2cncnc2)n1.Cl [Example 8, 4-(1-methylpiperidin-4-ylmethyl)-3-trifluoromethyl-N-{4-methyl-3-[4-(5-pyrimidinyl)pyrimidin-2-ylamino]phenyl}benzamide hydrochloride]	227 to 231 °C (dec.)	0.00098 µM	4694	4.6 µM	
Cc1ccc(NC(=O)c2ccc(OC3CCN(C)CC3)c(C(F)(F)F)c2)cc1Nc1nccc(-c2cncnc2)n1.Cl [Example 10, 4-(1-methylpiperidin-4-yloxy)-3-trifluoromethyl-N-{4-methyl-3-[4-(5-pyrimidinyl)pyrimidin-2-ylamino]phenyl}benzamide hydrochloride]	≥ 275 °C	0.0021 µM	3857	8.1 µM	
Cc1ccc(NC(=O)c2cc(Cl)c(CN3CC[C@H](N(C)C)C3)c(Cl)c2)cc1Nc1nccc(-c2cncnc2)n1.Cl [Example 12, (−)-3,5-dichloro-4-[(S)-3-(dimethylamino)pyrrolidin-1-ylmethyl]-N-{4-methyl-3-[4-(5-pyrimidinyl)pyrimidin-2-ylamino]phenyl}benzamide hydrochloride]	161 to 170 °C (dec.)	0.0056 µM	839	4.7 µM	
COc1cc(C(=O)Nc2ccc(C)c(Nc3nccc(-c4cncc(Br)c4)n3)c2)ccc1CN1CCN(C)CC1.Cl [Example 14, 3-methoxy-4-(4-methylpiperazin-1-ylmethyl)-N-{3-[4-(5-bromopyridin-3-yl)pyrimidin-2-ylamino]-4-methylphenyl}benzamide hydrochloride]	168 to 169 °C (dec.)	0.0079 µM	253	2 µM	
CCN1CCN(Cc2ccc(C(=O)Nc3ccc(C)c(Nc4nccc(-c5cncnc5)n4)c3)cc2C(F)(F)F)CC1.Cl [Example 16, 4-(4-ethylpiperazin-1-ylmethyl)-3-trifluoromethyl-N-{4-methyl-3-[4-(5-pyrimidinyl)pyrimidin-2-ylamino]phenyl}benzamide hydrochloride]	256 to 259 °C (dec.)	0.0011 µM	3727	4.1 µM	
Cc1ccc(NC(=O)c2ccc(CC3CCN(C)CC3)c(CF)c2)cc1Nc1nccc(-c2cncnc2)n1 [Example 21, 3-fluoromethyl-4-(1-methylpiperidin-4-ylmethyl)-N-{4-methyl-3-[4-(5-pyrimidinyl)pyrimidin-2-ylamino]phenyl}benzamide]		0.0063 µM	6667		42 µM
Cc1ccc(NC(=O)c2ccc(CN3CCN(C)CC3)c(C(F)(F)F)c2)cc1Nc1cc(-c2cccnc2)ccn1 [Example 28, 4-(4-methylpiperazin-1-ylmethyl)-3-trifluoromethyl-N-{4-methyl-3-[4-(3-pyridyl)pyridin-2-ylamino]phenyl}benzamide]	241 to 242 °C (dec.)				
Cc1ccc(NC(=O)c2ccc(CN3CCN(C)CC3)c(C(F)(F)F)c2)cc1Nc1cc(-c2cccnc2)ccn1 [Example 29, 4-(4-methylpiperazin-1-ylmethyl)-3-trifluoromethyl-N-{4-methyl-3-[4-(3-pyridyl)pyridin-2-ylamino]phenyl}benzamide methanesulfonate]		0.0017 µM	824		1.4 µM
Cc1ccc(NC(=O)c2ccc(CN3CC[C@@H](N(C)C)C3)c(C(F)(F)F)c2)cc1Nc1nccc(-c2cncnc2)n1.Cl [Example 38, (+)-4-[(R)-3-(dimethylamino)pyrrolidin-1-ylmethyl]-3-trifluoromethyl-N-{4-methyl-3-[4-(5-pyrimidinyl)pyrimidin-2-ylamino]phenyl}benzamide hydrochloride]		0.0019 µM	4684		8.9 µM
Cc1ccc(NC(=O)c2ccc(CN3CCNCC3)c(C(F)(F)F)c2)cc1Nc1nccc(-c2cncnc2)n1 [Example 43, 4-(1-piperazinylmethyl)-3-trifluoromethyl-N-{4-methyl-3-[4-(5-pyrimidinyl)pyrimidin-2-ylamino]phenyl}benzamide trifluoroacetate]		0.0011 µM	3545		3.9 µM
Cc1ccc(NC(=O)c2ccc(CN3CC[C@H](N)C3=O)c(C(F)(F)F)c2)cc1Nc1nccc(-c2cncnc2)n1 [Example 46, (−)-4-((S)-3-amino-2-oxopyrrolidin-1-ylmethyl)-3-trifluoromethyl-N-{4-methyl-3-[4-(5-pyrimidinyl)pyrimidin-2-ylamino]phenyl}benzamide]		0.019 µM	1526		29 µM
Cc1ccc(NC(=O)c2ccc(CN3CC[C@H](N(C)C)C3)c(C(F)(F)F)c2)cc1Nc1nccc(-c2cncnc2)n1.Cl [Example 48, (−)-4-[(S)-3-(dimethylamino)pyrrolidin-1-ylmethyl]-3-trifluoromethyl-N-{4-methyl-3-[4-(5-pyrimidinyl)pyrimidin-2-ylamino]phenyl}benzamide hydrochloride]		0.004 µM	3000		12 µM
Cc1ccc(NC(=O)c2ccc(CN3CCC[C@H]3CN3CCCC3)c(C(F)(F)F)c2)cc1Nc1nccc(-c2cncnc2)n1.Cl [Example 52, (−)-4-[(S)-2-(1-pyrrolidinylmethyl)pyrrolidin-1-ylmethyl]-3-trifluoromethyl-N-{4-methyl-3-[4-(5-pyrimidinyl)pyrimidin-2-ylamino]phenyl}benzamide hydrochloride]		0.004 µM	975		3.9 µM
Cc1ccc(NC(=O)c2ccc(CN3CCN[C@@H](C)C3)c(C(F)(F)F)c2)cc1Nc1nccc(-c2cncnc2)n1.Cl [Example 55, 4-((S)-3-methylpiperazin-1-ylmethyl)-3-trifluoromethyl-N-{4-methyl-3-[4-(5-pyrimidinyl)pyrimidin-2-ylamino]phenyl}benzamide]		0.0022 µM	4545		10 µM
CO[C@H]1CN(Cc2ccc(C(=O)Nc3ccc(C)c(Nc4nccc(-c5cncnc5)n4)c3)cc2C(F)(F)F)C[C@@H]1N(C)C.Cl [Example 59, 4-[(3S,4S)-3-(dimethylamino)-4-methoxypyrrolidin-1-ylmethyl]-3-trifluoromethyl-N-{4-methyl-3-[4-(5-pyrimidinyl)pyrimidin-2-ylamino]phenyl}benzamide hydrochloride]		0.0081 µM	1605		13 µM
CN[C@H]1CCN(Cc2ccc(C(=O)Nc3ccc(C)c(Nc4nccc(-c5cncnc5)n4)c3)cc2C(F)(F)F)C1 [Example 68, (−)-4-[(S)-3-(methylamino)pyrrolidin-1-ylmethyl]-3-trifluoromethyl-N-{4-methyl-3-[4-(5-pyrimidinyl)pyrimidin-2-ylamino]phenyl}benzamide]		0.0024 µM	2417		5.8 µM
